According to PubChem BioAssay (NCI):
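Dose response: 5 concentrations. Exposure: 48 h. Format: 96-well plates. Endpoint: linear interpolation; highest concentration if not reached. Abbreviation: GI50, concentration required for 50% inhibition of growth. At the TGI there is no net growth.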

Experiments:
Assay in all cases: NCI-60 cell line screen, 48 h
HCT-116 colon = test system: HCT-116 colon
TK-10 renal = test system: TK-10 renal
NCI-H23 lung = test system: NCI-H23 lung
SF-539 CNS = test system: SF-539 CNS
NCI-H226 lung = test system: NCI-H226 lung
OVCAR-3 ovarian = test system: OVCAR-3 ovarian
MDA-MB-231 breast = test system: MDA-MB-231 breast
M14 melanoma = test system: M14 melanoma
UACC-257 melanoma = test system: UACC-257 melanoma
BT-549 breast = test system: BT-549 breast
HOP-92 NSCLC = test system: HOP-92 NSCLC
MALME-3M melanoma = test system: MALME-3M melanoma
MDA-MB-435 = test system: MDA-MB-435
RPMI-8226 leukemia = test system: RPMI-8226 leukemia
DU-145 prostate = test system: DU-145 prostate
A498 renal = test system: A498 renal
COLO 205 colon = test system: COLO 205 colon
NCI-H460 lung = test system: NCI-H460 lung
OVCAR-8 ovarian = test system: OVCAR-8 ovarian
EKVX NSCLC = test system: EKVX NSCLC
UACC-62 melanoma = test system: UACC-62 melanoma
OVCAR-4 ovarian = test system: OVCAR-4 ovarian
LOX IMVI melanoma = test system: LOX IMVI melanoma
T-47D breast = test system: T-47D breast
ACHN renal = test system: ACHN renal
KM12 colon = test system: KM12 colon
RXF 393 renal = test system: RXF 393 renal
SNB-19 CNS = test system: SNB-19 CNS
CCRF-CEM leukemia = test system: CCRF-CEM leukemia

O=C(NNc1nc2cc(F)ccc2n2c(CN3CC4CNCC4C3)ccc12)c1ccncn1 (stereo not drawn)
GI50 (HCT-116 colon): 0.73 µM | TGI (HCT-116 colon): 13.7 µM | GI50 (TK-10 renal): 0.648 µM | TGI (TK-10 renal): 16.4 µM | GI50 (NCI-H23 lung): 2.31 µM | TGI (NCI-H23 lung): 10.4 µM | GI50 (SF-539 CNS): 1.56 µM | TGI (SF-539 CNS): 6.4 µM | GI50 (NCI-H226 lung): 0.943 µM | TGI (NCI-H226 lung): 6.73 µM | GI50 (OVCAR-3 ovarian): 3.26 µM | TGI (OVCAR-3 ovarian): 17.3 µM | GI50 (MDA-MB-231 breast): 2.31 µM | TGI (MDA-MB-231 breast): 16.2 µM | GI50 (M14 melanoma): 0.804 µM | TGI (M14 melanoma): 4.74 µM | GI50 (UACC-257 melanoma): 3.16 µM | TGI (UACC-257 melanoma): 11 µM | GI50 (BT-549 breast): 1.59 µM | TGI (BT-549 breast): 13.2 µM | GI50 (HOP-92 NSCLC): 0.0544 µM | TGI (HOP-92 NSCLC): 6.37 µM | GI50 (MALME-3M melanoma): 2.17 µM | TGI (MALME-3M melanoma): 8.75 µM | GI50 (MDA-MB-435): 3.68 µM | TGI (MDA-MB-435): 17.6 µM | GI50 (RPMI-8226 leukemia): 1.95 µM | TGI (RPMI-8226 leukemia): 10.8 µM | GI50 (DU-145 prostate): 3.26 µM | TGI (DU-145 prostate): 15.7 µM | GI50 (A498 renal): 24.9 µM | TGI (A498 renal): 40.4 µM | GI50 (COLO 205 colon): 3.05 µM | TGI (COLO 205 colon): 12.1 µM | GI50 (NCI-H460 lung): 0.591 µM | TGI (NCI-H460 lung): 16.1 µM | GI50 (OVCAR-8 ovarian): 1.29 µM | TGI (OVCAR-8 ovarian): 10.4 µM | GI50 (EKVX NSCLC): 0.441 µM | TGI (EKVX NSCLC): 9.23 µM | GI50 (UACC-62 melanoma): 1.19 µM | TGI (UACC-62 melanoma): 3.41 µM | GI50 (OVCAR-4 ovarian): 1.56 µM | TGI (OVCAR-4 ovarian): 17.3 µM | GI50 (LOX IMVI melanoma): 1 µM | TGI (LOX IMVI melanoma): 4.05 µM | GI50 (T-47D breast): 3.11 µM | TGI (T-47D breast): 14.7 µM | GI50 (ACHN renal): 0.62 µM | TGI (ACHN renal): 11.2 µM | GI50 (KM12 colon): 1.78 µM | TGI (KM12 colon): 16.2 µM | GI50 (RXF 393 renal): 1.58 µM | TGI (RXF 393 renal): 12.8 µM | GI50 (SNB-19 CNS): 2.67 µM | TGI (SNB-19 CNS): 16.6 µM | GI50 (CCRF-CEM leukemia): 1.55 µM | TGI (CCRF-CEM leukemia): 6.18 µM
